# “And” between values parts separate entries of the source, which are not always exact repeats. Equal values may be shown once. “Also recorded” adds a separate entry of the source.
# Legend:
# optic nerve [1] = assay: Compound action potential of isolated optic nerves perfused with ATP; parameters: species or system C57BL6 mice; conditions: ATP 10 mM, 3h (180 min), 37°C, compared to matched controls
# [2] = test system: optic nerve oligodendrocytes; assay: Reactive oxygen species (DCFDA) after OGD in oligodendrocyte cultures; type: cell-based, Sprague-Dawley rats; conditions: 1 h OGD; BBG 50 nM, PPADS 100 µM
# Procedure: (§1) Primary cultures of oligodendrocytes derived from optic nerves of 12 day-old Sprague-Dawley rats were obtained as previously described (Matute et al., 1997 Proc Natl Acad Sci U S A 94:8830-8835.).Cells were maintained at 37°C and 5% CO2 in a chemically defined medium (Matute et al., 1997 Proc Natl Acad Sci U S A 94:8830-8835.). After 2-4 days in vitro, cultures were composed of at least 98% 04/Ga1C^+ cells. No microglial cells were detected in these cultures. […] Cell death was determined 24h later using calcein-AM (Invitrogen) as previously described (Matute et al., 1997 Proc Natl Acad Sci U S A 94:8830-8835.). Antagonists were present during in vitro ischaemia and during the next 24h incubation period. […] Calcein was used to quantify the number of cells within the reading field. Fluorescence was measured as above and values were plotted as the percentage of DCFDA/calcein red-orange fluorescence versus control. The changes in mitochondrial membrane potential were monitored with 5,5',6,6'-tetrachloro-1,1',3,3'-tetraethylbenzimidazolcarbocyanine iodide (JC-1; Molecular Probes). […] The changes in the membrane potential were calculated as the red (emission at 590)/green (emission at 520) ratio in each condition and results were normalized to control.
# optic nerves = assay: Optic nerve ischaemia (OGD), tissue damage by LDH release; parameters: species or system rats
# Procedure: After 1h OGD at 37°C, the medium was replaced with fresh solution containing glucose and equilibrated with 95% O2, 5% CO2 and the nerves were incubated for another 2h at 37°C to simulate reperfusion.
# optic nerve [3] = conditions: 60 min after 1 h OGD; BBG 50 nM, o-ATP 1 mM
# [4] = test system: optic nerve oligodendrocytes; assay: Mitochondrial membrane potential (JC-1) after OGD in oligodendrocyte cultures; type: cell-based, Sprague-Dawley rats; conditions: 1 h OGD; BBG 50 nM, PPADS 100 µM
# Procedure: as §1
# [5] = test system: optic nerve oligodendrocytes; assay: Oxygen and glucose deprivation (OGD) cell death in oligodendrocyte cultures (calcein-AM); type: cell-based, Sprague-Dawley rats; conditions: 1h OGD, calcein 24h later; PPADS 100 µM, BBG 50 nM, CNQX 30 µM, APV 100 µM, apyrase 20 U/ml, ARL67156 100 µM, CBX 20 µM, FFA 100 µM, MFQ 1 nM
# Procedure: Primary cultures of oligodendrocytes derived from optic nerves of 12 day-old Sprague-Dawley rats were obtained as previously described (Matute et al., 1997 Proc Natl Acad Sci U S A 94:8830-8835.).Cells were maintained at 37°C and 5% CO2 in a chemically defined medium (Matute et al., 1997 Proc Natl Acad Sci U S A 94:8830-8835.). After 2-4 days in vitro, cultures were composed of at least 98% 04/Ga1C^+ cells. No microglial cells were detected in these cultures. […] Cell death was determined 24h later using calcein-AM (Invitrogen) as previously described (Matute et al., 1997 Proc Natl Acad Sci U S A 94:8830-8835.). Antagonists were present during in vitro ischaemia and during the next 24h incubation period. […] To assay the levels of reactive oxygen species (ROS), cells were loaded with 40 µM 2',7'- dichlorodihyfluoresceindiacetate (DCFDA; Invitrogen) and 1 µM calcein red-orange (Molecular Probes) immediately after OGD. Calcein was used to quantify the number of cells within the reading field. Fluorescence was measured as above and values were plotted as the percentage of DCFDA/calcein red-orange fluorescence versus control. The changes in mitochondrial membrane potential were monitored with 5,5',6,6'-tetrachloro-1,1',3,3'-tetraethylbenzimidazolcarbocyanine iodide (JC-1; Molecular Probes). Immediately after OGD, cells were loaded with JC-1 (3 µM) at 37°C for 30 min. The changes in the membrane potential were calculated as the red (emission at 590)/green (emission at 520) ratio in each condition and results were normalized to control.
# [6] = test system: optic nerve oligodendrocytes; assay: Whole-cell recording of ischaemic inward current in cultured oligodendrocytes (chemical ischaemia); type: cell-based, Sprague-Dawley rats
# Procedure: After 2-4 days in vitro, cultures were composed of at least 98% 04/Ga1C^+ cells. No microglial cells were detected in these cultures. […] Cell death was determined 24h later using calcein-AM (Invitrogen) as previously described (Matute et al., 1997 Proc Natl Acad Sci U S A 94:8830-8835.). Antagonists were present during in vitro ischaemia and during the next 24h incubation period. […] Calcein was used to quantify the number of cells within the reading field. Fluorescence was measured as above and values were plotted as the percentage of DCFDA/calcein red-orange fluorescence versus control. […] Molecular Probes). […] The changes in the membrane potential were calculated as the red (emission at 590)/green (emission at 520) ratio in each condition and results were normalized to control. Whole cell recordings were performed at room temperature and at a holding membrane potential of -70 mV. Extracellular bath solution with a pH of 7.3 contained (in mM): […] Patch clamp pipettes (3-5 MΩ) were filled with internal solution at a pH of 7.3 containing (in mM): CsCI 140, CaC12 2, MgC12 2, HEPES 10, EGTA 11, Na-ATP 2. For electrophysiology monitoring, ischaemia was induced chemically by using the glycolytic blocker iodoacetate (1 mM) and the oxidative phosphorylation inhibitor antimycin (2.5 μM), and omitting glucose because recordings were performed in an open chamber where O2 can diffuse to the cells (Káradóttir et al., 2005). Recordings of ATP currents were performed in divalent cation-free extracellular solutions, obtained by omitting Ca^2+ and Mg^2+, to potentiate P2X-mediated responses (Matute et al., 1997 Proc Natl Acad Sci U S A 94:8830-8835.). […] Molecular Probes, Inc., Eugene, OR) in culture medium for 30 min at 37 °C. Experiments were carried out in a coverslip chamber continuously perfused with a buffer containing 20 mM HEPES, 2 mM CaC12, 10 mM glucose in HBSS at 1 ml/min. The perfusion chamber was mounted on the stage of a Zeiss inverted epifluorescence microscope (Axiovert 35), equipped with a 150 W xenon lamp Polychrome IV (TILL Photonics GMBH) and a Plan Neofluar 40x oil immersion objective (Zeiss, Germany). Cells were visualized with a high resolution digital B/W CCD camera (ORCA; Hamamatsu Photonics Iberica, Barcelona, Spain) and image acquisition and data analysis were carried out using the AquaCosmos software program (Hamamatsu Photonics Iberica). Images were acquired every 30 ms at 37°C and ischaemia was induced as above. […] At the end of the assay, in situ calibration was carried out with the successive addition of […] and 2M Tris/50 mM EGTA, pH 8.5. Data were analyzed with Excel and Prism software.
# [7] = test system: AMPA and kainate receptors; assay: Glutamate receptor agonist (AMPA, kainate) induced oligodendrocyte death (calcein fluorescence); type: cell-based, Sprague-Dawley rats; conditions: AMPA (100 µM) + cyclothiazide (100 µM), or kainate (3 mM) + GYKI 53655 (50 µM); PPADS 100 µM, BBG 50 nM
# Procedure: as §1
# P2X3 = molecular target: T1, P2X3 (Homo sapiens, UniProt P56373); conditions: read-out: IC50 P2X3; cited from earlier work
# T1 sequence (P56373 1-397): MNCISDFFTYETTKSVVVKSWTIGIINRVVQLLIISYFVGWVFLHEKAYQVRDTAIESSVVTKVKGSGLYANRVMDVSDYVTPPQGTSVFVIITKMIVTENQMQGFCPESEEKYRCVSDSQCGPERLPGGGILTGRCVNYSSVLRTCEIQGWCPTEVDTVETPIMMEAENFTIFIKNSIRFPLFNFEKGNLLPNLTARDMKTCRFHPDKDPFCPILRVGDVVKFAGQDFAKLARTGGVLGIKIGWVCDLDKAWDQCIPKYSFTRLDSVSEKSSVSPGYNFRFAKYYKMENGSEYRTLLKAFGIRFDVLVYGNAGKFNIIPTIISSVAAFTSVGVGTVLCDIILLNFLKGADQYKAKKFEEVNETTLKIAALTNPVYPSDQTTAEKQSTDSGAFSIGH
# Pannexin hemichannels = conditions: cited from earlier work
# P2X4 = molecular target: T2, P2X4 (Homo sapiens, UniProt Q99571); conditions: read-out: IC50 P2X4; cited from earlier work
# T2 sequence (Q99571 1-388): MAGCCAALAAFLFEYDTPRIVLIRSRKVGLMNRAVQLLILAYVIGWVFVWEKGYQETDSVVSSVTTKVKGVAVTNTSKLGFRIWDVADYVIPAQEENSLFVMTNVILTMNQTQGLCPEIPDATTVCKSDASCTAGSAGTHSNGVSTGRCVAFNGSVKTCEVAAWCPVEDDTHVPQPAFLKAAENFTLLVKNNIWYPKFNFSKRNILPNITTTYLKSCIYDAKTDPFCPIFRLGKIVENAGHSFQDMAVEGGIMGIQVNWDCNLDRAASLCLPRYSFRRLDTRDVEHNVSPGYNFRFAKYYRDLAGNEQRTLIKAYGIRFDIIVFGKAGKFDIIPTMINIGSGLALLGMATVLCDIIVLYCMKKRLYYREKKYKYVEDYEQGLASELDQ
structure (smiles),measurement,setting,value
Nc1ncnc2c1ncn2[C@@H]1O[C@H](COP(=O)(O)OP(=O)(O)OP(=O)(O)O)[C@@H](O)[C@H]1O [ATP],reduction in CAP area,optic nerve [1],50% and 50.1 ± 10.5%
"CCOc1ccc(Nc2ccc(C(=C3C=CC(=[N+](CC)Cc4cccc(S(=O)(=O)[O-])c4)C=C3C)c3ccc(N(CC)Cc4cccc(S(=O)(=O)O)c4)cc3C)cc2)cc1 [BBG, Coomassie brilliant blue G]",generation of radical oxygen species (ROS),[2],prevented
same,ischaemia-induced damage to optic nerves (LDH release),"optic nerves; P28 rat optic nerves, 1h OGD + 2h reperfusion, PPADS 1 mM, BBG 50 nM, oATP 1 mM, apyrase 20 U/ml, MFQ 1 µM, CBX 100 µM, FFA 1 mM",prevented; also recorded: reduced
same,OGD-induced damage at all developmental stages,"optic nerves; premyelinating (P7), myelinating (P14) and mature (P28) optic nerves",decreased; also recorded: protected
same,recovery of axon function (CAP area) after the ischaemic insult,optic nerve [3],significantly improved
same,mitochondrial depolarization,[4],prevented
same,OGD-induced oligodendrocyte cell death,[5],significantly reduced
same,OGD-induced currents,"[6]; BBG 50 nM, CNQX (30 µM) plus APV (100 µM) applied before the onset of ischemia",inhibited
same,OGD currents after drug application versus OGD currents before drug application,"[6]; after washing the antagonists out, average over BBG and PPADS, n= 15",134 ± 32%
same,ischaemic inward currents,"[6]; chemical ischaemia (iodoacetate, antimycin, no glucose), -70 mV, PPADS 100 µM, oATP 1 mM, BBG 50 nM",significantly reduced; also recorded: partial block
same,glutamate receptor-induced oligodendrocyte death,[7],did not significantly inhibit
same,IC50,P2X3,> 10 µM
CC1(C)[C@@H](OC(=O)CCC(=O)O)CC[C@]2(C)[C@H]3C(=O)C=C4[C@@H]5C[C@@](C)(C(=O)O)CC[C@]5(C)CC[C@@]4(C)[C@]3(C)CC[C@@H]12 [Carbenoxolone disodium],IC50,Pannexin hemichannels,~5 µM
O=C(Nc1cccc(C(=O)Nc2ccc(S(=O)(=O)O)c3cc(S(=O)(=O)O)cc(S(=O)(=O)O)c23)c1)Nc1cccc(C(=O)Nc2ccc(S(=O)(=O)O)c3cc(S(=O)(=O)O)cc(S(=O)(=O)O)c23)c1 [NF023],IC50,P2X4,> 100 µM
same,IC50,P2X3,< 29 µM

# Reference: patent EP2322149A1, “Methods and compositions for the treatment of ischemia” (Universidad del Pais Vasco, priority 2009, dated 2011)
